Test results published in ChEMBL document CHEMBL1153065, “Synthesis, radiolabeling and preliminary in vivo evaluation of [18F]FE-PE2I, a new probe for the dopamine transporter” (Bioorg Med Chem Lett, 2009).

Tests used:
[1] = Ratio of drug uptake in cerebellum to putamen in cynomolgus monkey by GBR-12909 displacement assay; set-up: species or system Macaca fascicularis; conditions: in vivo
Plasma = test: Metabolic stability in cynomolgus monkey venous plasma assessed as compound recovery by radio-HPLC; assay type: ADME, cell-free, Macaca fascicularis
Brain = test: Drug uptake in cynomolgus monkey brain at 59 MBq after 13 mins; assay type: ADME, tissue-based, Macaca fascicularis; conditions: in vivo
[2] = Ratio of drug uptake in cerebellum to caudate in cynomolgus monkey by GBR-12909 displacement assay; set-up: species or system Macaca fascicularis; conditions: in vivo
[3] = Ratio of drug uptake in cerebellum to caudate in cynomolgus monkey at 59 MBq after 105 mins; assay type: ADME, Macaca fascicularis; conditions: in vivo, 1.75 h
[4] = Ratio of drug uptake in cerebellum to putamen in cynomolgus monkey at 59 MBq after 105 mins; assay type: ADME, Macaca fascicularis; conditions: in vivo, 1.75 h
[5] = molecular target: Sodium-dependent dopamine transporter (Rattus norvegicus, UniProt P23977); test: Displacement of [125I]PE2I from rat DAT
Sodium-dependent dopamine transporter, sequence (P23977 whole entry): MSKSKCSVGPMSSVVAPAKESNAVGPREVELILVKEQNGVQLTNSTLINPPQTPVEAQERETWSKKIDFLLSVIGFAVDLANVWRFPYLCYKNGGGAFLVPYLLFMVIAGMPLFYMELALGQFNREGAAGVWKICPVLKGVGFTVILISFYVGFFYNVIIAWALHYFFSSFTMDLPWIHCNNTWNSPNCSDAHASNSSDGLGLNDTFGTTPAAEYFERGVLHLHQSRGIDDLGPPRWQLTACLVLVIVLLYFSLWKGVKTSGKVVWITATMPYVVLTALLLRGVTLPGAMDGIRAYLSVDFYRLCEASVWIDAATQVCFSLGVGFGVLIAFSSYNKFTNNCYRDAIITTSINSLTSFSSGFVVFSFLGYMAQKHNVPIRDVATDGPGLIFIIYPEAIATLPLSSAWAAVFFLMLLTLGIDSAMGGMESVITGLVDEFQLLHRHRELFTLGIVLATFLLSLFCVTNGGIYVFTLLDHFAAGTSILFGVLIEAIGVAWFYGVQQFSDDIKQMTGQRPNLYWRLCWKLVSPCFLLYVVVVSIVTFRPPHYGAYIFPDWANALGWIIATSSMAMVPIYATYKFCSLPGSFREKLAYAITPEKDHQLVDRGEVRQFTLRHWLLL

Row | Structure (SMILES) | Ratio [1] | Stability (Plasma) [%] | SUV (Brain) [%] | Ratio [2] | Ratio [3] | Ratio [4] | Ki [5] [µM]
1 | Cc1ccc([C@H]2C[C@@H]3CC[C@H]([C@H]2C(=O)OCC[18F])N3C/C=C/I)cc1 | 1.3 | 91 | 540 | 1.4 | 7.5 | 7.9 | –
2 | Cc1ccc([C@H]2C[C@@H]3CC[C@H]([C@H]2C(=O)OCCF)N3C/C=C/I)cc1 | – | – | – | – | – | – | 0.012
3 | COC(=O)[C@H]1[C@@H](c2ccc(C)cc2)C[C@@H]2CC[C@H]1N2C/C=C/I | – | – | – | – | – | – | 0.016
